{"source": "patent US5559158A", "about": "“Pharmaceutical composition” (Abbott Laboratories, priority 1994, dated 1996)", "key": {"HIV-2 protease": {"tested_on": "HIV-2 protease", "assay": "Inhibition of HIV-2 protease", "assay_type": "biochemical", "settings": "in words"}, "HIV-1 protease": {"tested_on": "HIV-1 protease", "assay": "Inhibition of HIV-1 protease", "assay_type": "biochemical", "settings": "in words"}, "[1]": {"assay": "Oral bioavailability study in dogs", "parameters": "species or system beagle dogs", "settings": "dog, in vivo, 5 mg/kg, summary statement, dose not stated", "experimental": "Each dog received a single solid dosage form corresponding to a 5 mg/kg dose of the drug."}, "[2]": {"settings": "listed as compound of formula II"}}, "data": [{"smiles": "CC(C)c1nc(CN(C)C(=O)NC(C(=O)NC(Cc2ccccc2)CC(O)C(Cc2ccccc2)NC(=O)OCc2cncs2)C(C)C)cs1", "note": "(stereo not shown) [Compound II]", "values": [{"measurement": "inhibition of HIV-2 protease", "setting": "HIV-2 protease", "result": "inhibitors"}, {"measurement": "inhibition of HIV-2 protease", "setting": "HIV-2 protease; [2]", "result": "especially effective"}, {"measurement": "inhibition of HIV-1 protease", "setting": "HIV-1 protease", "result": "inhibitors"}, {"measurement": "inhibition of HIV-1 protease", "setting": "HIV-1 protease; [2]", "result": "especially effective"}]}, {"smiles": "CC(C)c1nc(CN(C)C(=O)NC(C(=O)N[C@@H](Cc2ccccc2)C[C@H](O)[C@H](Cc2ccccc2)NC(=O)OCc2cncs2)C(C)C)cs1", "note": "(stereo partly drawn) [Compound III, (2S,3S,5S)-5-(N-(N-((N-Methyl-N-((2-isopropyl-4-thiazolyl)methyl)-amino)carbonyl)valinyl)amino)-2-(N((5-thiazolyl)methoxycarbonyl)amino)-1,6-diphenyl-3-hydroxyhexane]", "values": [{"measurement": "bioavailability", "setting": "[1]", "result": "< 2", "unit": "%"}, {"measurement": "inhibition of HIV-2 protease", "setting": "HIV-2 protease", "result": "inhibitors"}, {"measurement": "inhibition of HIV-1 protease", "setting": "HIV-1 protease", "result": "inhibitors"}]}]}
